Measurements: patent US20100305113A1, “Substituted Imidazopyridazines as Lipid Kinase Inhibitors” (priority 2007, published 2010)

Legend:
Assay type in all cases: biochemical
Conditions in all cases: Enzymatic Data
[1] = biological target: T1, PI3K alfa (Homo sapiens, UniProt P42336); assay: PI3K alfa enzymatic assay (Kinase-Glo luminescence)
T1 construct: p85(iSH2) fusion partner (same polypeptide; see partner chain) (N); 12x Gly linker (N); His tag (C); made in house; host or cells: baculovirus; Tn5 (Trichoplusia ni) or TiniPro insect cells
Experimental: (§1) In a more preferred assay, the kinase reaction is performed in a final volume of 10 μL per well of a low volume non binding CORNING, 384 well black plate (Cat. No. #3676). The final concentrations of ATP and phosphatidyl inositol (PI) in the assay are 1 μM and 10 μg/mL respectively. The reaction is started by the addition of ATP.
(§2) The components of the assay are added per well as follows:
(§3) 50 nL test compounds in 90% DMSO per well, in columns 1-20, 8 concentrations (⅓ and 1/3.33 serial dilution step) in single. • Low control: 50 nL of 90% DMSO in half the wells of columns 23-24 (0.45% in final). • High control: 50 nL of reference compound (e.g. compound of Example 7 in WO 2006/122806, incorporated by reference herein that regard) in the other half of columns 23-24 (2.5 μM in final). • Standard: 50 nL of reference compound as just mentioned diluted as the test compounds in columns 21-22 • 20 mL ‘buffer’ are prepared per assay: • 200 μL of 1M TRIS HCl pH7.5 (10 mM in final) • 60 μL of 1M MgCl2 (3 mM in final) • 500 μL of 2M NaCl (50 mM in final) • 100 μL of 10% CHAPS (0.05% in final) • 200 μL of 100 mM DTT (1 mM in final) • 18.94 mL of nanopure water • 10 mL ‘PI’ are prepared per assay: • 200 μL of 1 mg/ml L-alpha-Phosphatidylinositol (Liver Bovine, Avanti Polar Lipids Cat. No. 840042C MW=909.12) prepared in 3% OctylGlucoside ([…]) • 9.8 mL of ‘buffer’ • 10 mL ‘ATP’ are prepared per assay: • 6.7 μL of 3 mM stock of ATP giving a final concentration of 1 μM per well • 10 mL of ‘buffer’ • 2.5 mL of each PI3K construct are prepared per assay in ‘PI’ with the following final concentration: • 10 nM PI3K alfa BV-1075 • 25 nM beta BV-949 • 10 nM delta BV-1060 • 150 nM gamma BV-950 • 5 μL of ‘PI/PI3K’ are added per well. • 5 μl ‘ATP’ are added per well to start the reaction. • The plates are then incubated at room temperature for 60 minutes (alfa, beta, delta) or 120 minutes (gamma). • The reaction is terminated by the addition of 10 μL Kinase-Glo (Promega Cat. No. #6714). • The assay plates are read after 10 minutes in Synergy 2 reader (BioTek, Vermont USA) with an integration time of 100 milliseconds and sensitivity set to 191. • Output: The High control is around 60′000 counts and the Low control is 30′000 or lower • This luminescence assay gives a useful Z′ ratio between 0.4 and 0.7 The Z′ value is a universal measurement of the robustness of an assay. A Z′ between 0.5 and 1.0 is considered an excellent assay.
(§4) IC50 is determined by a four parameter curve fitting routine that comes aloneg with “excel fit”. A 4 Parameter logistic equation is used to calculate IC50 values (IDBS XLfit) of the percentage inhibition of each compound at 8 concentrations (usually 10, 3.0, 1.0, 0.3, 0.1, 0.030, 0.010 and 0.003 μM). Alternatively, IC50 values are calculated using idbsXLfit model 204, which is a 4 parameter logistic model.

[2] = biological target: T2, PI3K beta (Homo sapiens, UniProt P42338); assay: PI3K beta enzymatic assay (Kinase-Glo luminescence)
T2 construct: for the full-length p110-b subunit are generated and fused by overlapping PCR; p85(iSH2) fusion partner (same polypeptide; see partner chain) (N); Gly linker (N); His tag (C); made in house; host or cells: baculovirus; Tn5 (Trichoplusia ni) or TiniPro insect cells
Experimental: as §1, §2, §3
PI3Kβ BV-949 p85(iSH2)-Gly linker-p110b (Full-Length)-C-Term His Tag
as §4

[3] = biological target: T3, PI3K delta (Homo sapiens, UniProt O00329); assay: PI3K delta enzymatic assay (Kinase-Glo luminescence)
T3 construct: for the full-length p110-d subunit are generated and fused by overlapping PCR; p85(iSH2) fusion partner (same polypeptide; see partner chain) (N); Gly linker (N); His tag (C); made in house; host or cells: baculovirus; Tn5 (Trichoplusia ni) or TiniPro insect cells
Experimental: as §1, §2, §3
PI3Kδ BV-1060 p85(iSH2)-Gly Linker-p110d (Full-Length)-C-term His Tact
as §4

[4] = biological target: T4, PI3K gamma (Homo sapiens, UniProt P48736); assay: PI3K gamma enzymatic assay (Kinase-Glo luminescence)
T4 construct: His tag (C); made in house; host or cells: construct from Roger Williams lab (MRC LMB); baculovirus (pVL1393); Tn5 (Trichoplusia ni) or TiniPro insect cells
Experimental: as §1, §2, §3, §4

T1 sequence (P42336 with tags, fused parts or gaps limits assumed): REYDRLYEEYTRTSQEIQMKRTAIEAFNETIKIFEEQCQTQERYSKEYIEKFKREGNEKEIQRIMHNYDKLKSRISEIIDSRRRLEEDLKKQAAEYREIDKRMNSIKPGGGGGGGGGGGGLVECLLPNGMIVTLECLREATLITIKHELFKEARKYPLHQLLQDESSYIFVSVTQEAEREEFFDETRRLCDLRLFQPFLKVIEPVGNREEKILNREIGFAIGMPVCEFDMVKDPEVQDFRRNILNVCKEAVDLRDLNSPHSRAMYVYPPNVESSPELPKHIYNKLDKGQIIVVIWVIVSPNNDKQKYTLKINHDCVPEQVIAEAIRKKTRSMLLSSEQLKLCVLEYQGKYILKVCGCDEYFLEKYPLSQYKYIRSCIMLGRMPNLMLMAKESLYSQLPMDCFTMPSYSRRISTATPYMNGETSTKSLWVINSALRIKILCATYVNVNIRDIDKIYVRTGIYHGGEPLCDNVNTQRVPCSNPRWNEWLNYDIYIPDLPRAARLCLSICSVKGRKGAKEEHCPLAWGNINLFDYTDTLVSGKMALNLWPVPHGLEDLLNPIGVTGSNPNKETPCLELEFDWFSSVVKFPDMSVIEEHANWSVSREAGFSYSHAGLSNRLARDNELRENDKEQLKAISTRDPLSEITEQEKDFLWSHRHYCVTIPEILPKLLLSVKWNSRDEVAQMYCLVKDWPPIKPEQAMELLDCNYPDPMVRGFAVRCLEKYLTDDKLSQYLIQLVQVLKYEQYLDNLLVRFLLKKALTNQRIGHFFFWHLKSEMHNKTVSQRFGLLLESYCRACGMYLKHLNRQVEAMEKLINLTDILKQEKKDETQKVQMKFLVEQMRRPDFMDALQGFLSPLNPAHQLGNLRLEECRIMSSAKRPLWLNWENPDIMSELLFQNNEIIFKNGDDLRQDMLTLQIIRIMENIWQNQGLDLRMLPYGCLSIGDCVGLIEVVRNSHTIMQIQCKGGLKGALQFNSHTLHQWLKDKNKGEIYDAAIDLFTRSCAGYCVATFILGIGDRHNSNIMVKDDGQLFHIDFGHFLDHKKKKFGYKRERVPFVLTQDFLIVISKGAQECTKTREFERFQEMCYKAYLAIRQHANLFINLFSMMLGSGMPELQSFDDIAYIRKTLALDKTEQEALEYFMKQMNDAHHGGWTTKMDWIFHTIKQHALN
T4 sequence (P48736 144-1102 limits assumed): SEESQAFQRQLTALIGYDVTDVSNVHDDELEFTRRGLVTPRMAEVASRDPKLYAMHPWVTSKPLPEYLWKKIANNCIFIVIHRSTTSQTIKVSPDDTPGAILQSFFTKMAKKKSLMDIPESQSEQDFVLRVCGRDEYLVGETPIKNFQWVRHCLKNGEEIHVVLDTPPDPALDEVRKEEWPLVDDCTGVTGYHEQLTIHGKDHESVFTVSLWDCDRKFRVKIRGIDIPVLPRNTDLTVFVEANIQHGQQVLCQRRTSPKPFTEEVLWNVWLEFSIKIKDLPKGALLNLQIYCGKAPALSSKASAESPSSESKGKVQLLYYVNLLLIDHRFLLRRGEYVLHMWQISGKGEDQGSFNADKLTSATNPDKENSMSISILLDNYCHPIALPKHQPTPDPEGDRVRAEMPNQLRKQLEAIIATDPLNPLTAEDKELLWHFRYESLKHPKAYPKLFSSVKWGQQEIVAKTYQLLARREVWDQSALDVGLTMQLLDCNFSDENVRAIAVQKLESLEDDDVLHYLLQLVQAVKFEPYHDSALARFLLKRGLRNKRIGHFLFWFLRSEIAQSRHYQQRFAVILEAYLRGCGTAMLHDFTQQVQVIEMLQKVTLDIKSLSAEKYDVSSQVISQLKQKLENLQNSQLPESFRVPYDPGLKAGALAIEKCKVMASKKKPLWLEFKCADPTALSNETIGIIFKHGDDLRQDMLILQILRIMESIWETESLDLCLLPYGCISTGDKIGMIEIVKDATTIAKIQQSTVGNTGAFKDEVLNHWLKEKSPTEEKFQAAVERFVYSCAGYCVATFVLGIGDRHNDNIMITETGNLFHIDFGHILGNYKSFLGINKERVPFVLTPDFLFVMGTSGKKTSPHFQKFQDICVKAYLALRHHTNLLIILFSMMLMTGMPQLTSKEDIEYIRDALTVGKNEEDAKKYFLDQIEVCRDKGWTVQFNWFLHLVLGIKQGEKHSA
T2 sequence (P42338 with tags, fused parts or gaps limits assumed): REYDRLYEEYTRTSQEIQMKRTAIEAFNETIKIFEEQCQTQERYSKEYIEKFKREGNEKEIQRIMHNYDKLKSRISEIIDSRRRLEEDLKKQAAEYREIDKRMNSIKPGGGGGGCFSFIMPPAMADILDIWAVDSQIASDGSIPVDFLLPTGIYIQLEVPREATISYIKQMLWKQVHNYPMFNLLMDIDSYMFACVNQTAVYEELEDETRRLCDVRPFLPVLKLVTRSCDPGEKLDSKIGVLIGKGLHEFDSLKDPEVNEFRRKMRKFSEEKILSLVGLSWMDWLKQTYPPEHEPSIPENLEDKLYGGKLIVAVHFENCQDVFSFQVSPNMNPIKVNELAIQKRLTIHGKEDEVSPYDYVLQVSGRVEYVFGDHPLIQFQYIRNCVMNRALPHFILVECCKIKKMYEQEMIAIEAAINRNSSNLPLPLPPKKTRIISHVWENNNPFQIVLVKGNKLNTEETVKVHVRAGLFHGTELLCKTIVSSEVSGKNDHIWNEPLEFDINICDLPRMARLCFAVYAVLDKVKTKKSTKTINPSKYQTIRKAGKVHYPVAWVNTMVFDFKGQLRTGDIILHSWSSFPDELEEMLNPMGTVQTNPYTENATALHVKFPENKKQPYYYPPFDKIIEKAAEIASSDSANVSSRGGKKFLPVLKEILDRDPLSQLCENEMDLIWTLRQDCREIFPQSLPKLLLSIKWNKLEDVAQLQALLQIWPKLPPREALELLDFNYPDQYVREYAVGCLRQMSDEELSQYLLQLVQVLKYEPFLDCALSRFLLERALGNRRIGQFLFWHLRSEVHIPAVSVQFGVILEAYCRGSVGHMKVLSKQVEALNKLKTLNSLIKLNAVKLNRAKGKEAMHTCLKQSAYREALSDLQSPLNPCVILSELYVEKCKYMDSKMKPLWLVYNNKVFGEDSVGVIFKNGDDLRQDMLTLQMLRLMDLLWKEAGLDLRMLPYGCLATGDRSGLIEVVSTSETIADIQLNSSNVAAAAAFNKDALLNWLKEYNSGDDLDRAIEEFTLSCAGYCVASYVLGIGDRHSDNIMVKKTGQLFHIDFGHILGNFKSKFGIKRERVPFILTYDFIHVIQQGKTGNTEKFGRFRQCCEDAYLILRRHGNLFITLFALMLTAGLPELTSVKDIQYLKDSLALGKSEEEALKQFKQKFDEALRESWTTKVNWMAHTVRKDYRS
T3 sequence (O00329 with tags, fused parts or gaps limits assumed): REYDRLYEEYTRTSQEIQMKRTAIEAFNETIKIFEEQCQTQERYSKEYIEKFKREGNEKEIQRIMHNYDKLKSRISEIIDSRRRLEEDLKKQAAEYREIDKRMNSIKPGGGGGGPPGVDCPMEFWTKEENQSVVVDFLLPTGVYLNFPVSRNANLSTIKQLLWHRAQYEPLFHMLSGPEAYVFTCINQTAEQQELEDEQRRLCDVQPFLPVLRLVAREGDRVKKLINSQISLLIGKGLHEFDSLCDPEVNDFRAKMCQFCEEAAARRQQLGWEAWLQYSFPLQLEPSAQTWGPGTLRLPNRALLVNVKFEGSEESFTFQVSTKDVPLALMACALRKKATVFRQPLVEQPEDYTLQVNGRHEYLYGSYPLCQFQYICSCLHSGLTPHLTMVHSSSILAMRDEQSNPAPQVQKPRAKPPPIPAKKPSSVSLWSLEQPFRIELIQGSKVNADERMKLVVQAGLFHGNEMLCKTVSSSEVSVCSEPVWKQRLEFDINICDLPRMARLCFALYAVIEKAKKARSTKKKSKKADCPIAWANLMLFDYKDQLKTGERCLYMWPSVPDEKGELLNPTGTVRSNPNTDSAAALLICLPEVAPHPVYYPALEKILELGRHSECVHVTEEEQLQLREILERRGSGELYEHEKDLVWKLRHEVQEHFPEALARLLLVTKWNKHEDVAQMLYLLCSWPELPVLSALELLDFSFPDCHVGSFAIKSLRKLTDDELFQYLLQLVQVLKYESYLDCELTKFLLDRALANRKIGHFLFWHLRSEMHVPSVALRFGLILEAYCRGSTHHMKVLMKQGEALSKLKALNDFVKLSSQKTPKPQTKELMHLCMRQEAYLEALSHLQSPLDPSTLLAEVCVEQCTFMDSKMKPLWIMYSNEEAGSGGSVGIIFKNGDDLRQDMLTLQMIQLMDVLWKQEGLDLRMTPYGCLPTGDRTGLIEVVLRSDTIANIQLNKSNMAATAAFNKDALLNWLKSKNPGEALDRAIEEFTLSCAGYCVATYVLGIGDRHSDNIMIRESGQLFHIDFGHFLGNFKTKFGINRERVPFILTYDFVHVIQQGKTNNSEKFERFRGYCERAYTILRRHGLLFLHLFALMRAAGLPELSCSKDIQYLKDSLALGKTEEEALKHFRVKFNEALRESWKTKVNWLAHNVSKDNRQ

| Compound | IC50 [1] | IC50 [2] | IC50 [3] | IC50 [4] |
| --- | --- | --- | --- | --- |
| COc1cc(-c2ccc3nc(C)c(-c4cnc(N)c(C(F)(F)F)c4)n3n2)ccc1OCCNC(=O)c1cc(OC)c(OC)c(OC)c1 [Example 41] | 294 nM | > 9100 nM | > 9100 nM | 933 nM |
| COc1cc(-c2ccc3nc(C)c(-c4cnc(N)c(C(F)(F)F)c4)n3n2)ccc1OCCNC(=O)Nc1cc(OC)c(OC)c(OC)c1 [Example 61] | 242 nM | > 9100 nM | 2710 nM | 194 nM |
| COc1cc(-c2ccc3nc(C)c(-c4cnc(N)c(C(F)(F)F)c4)n3n2)ccc1OCCCN1CCCC1=O [Example 77] | 75 nM | 3790 nM | 281 nM | 1260 nM |
| COc1cc(-c2ccc3nc(C)c(-c4cnc(N)c(C(F)(F)F)c4)n3n2)ccc1OCCNC(=O)OC(C)C [Example 79] | 99 nM | > 9100 nM | 2040 nM | 648 nM |
| COc1cc(-c2ccc3nc(C)c(-c4cnc(N)c(C(F)(F)F)c4)n3n2)ccc1OCCCNC(=O)OC(C)C [Example 80] | 175 nM | > 9100 nM | 2700 nM | 1930 nM |
| COc1cc(-c2ccc3nc(C)c(-c4cnc(N)c(C(F)(F)F)c4)n3n2)ccc1OCCCNC(=O)C(C)C [Example 82] | 19 nM | 4010 nM | 164 nM | 87 nM |
| COc1ccc(-c2ccc3nc(C)c(-c4ccnc(-n5ccnc5)n4)n3n2)cc1OC [Example 83, 6-(3,4-Dimethoxy-phenyl)-3-(2-imidazol-1-yl-pyrimidin-4-yl)-2-methyl-imidazo[1,2-b]pyridazine] | 276 nM | > 9100 nM | 397 nM | 1160 nM |
| COCCOCCOCCOc1ccc(-c2ccc3nc(C)c(-c4cnc(N)c(C(F)(F)F)c4)n3n2)cc1OC [Example 84, 5-[6-(3-Methoxy-4-{2-[2-(2-methoxy-ethoxy)-ethoxy]-ethoxy}-phenyl)-2-methyl-imidazo[1,2-b]pyridazin-3-yl]-3-trifluoromethyl-pyridin-2-ylamine] | 40 nM | > 9100 nM | 174 nM | 65 nM |
| COc1cc(-c2ccc3nc(C)c(-c4cnc(N)c(C(F)(F)F)c4)n3n2)ccc1OCCCNC(=O)C(F)(F)F [Example 85, N-(3-{4-[3-(6-Amino-5-trifluoromethyl-pyridin-3-yl)-2-methyl-imidazo[1,2-b]pyridazin-6-yl]-2-methoxy-phenoxy}-propyl)-2,2,2-trifluoro-acetamide] | 244 nM | > 9100 nM | 3490 nM | 2590 nM |
| COc1ccc(-c2ccc3nc(C)c(-c4ccnc(NCc5ccccc5)n4)n3n2)cc1OC [Example 86, Benzyl-{4-[6-(3,4-dimethoxy-phenyl)-2-methyl-imidazo[1,2-b]pyridazin-3-yl]-pyrimidin-2-yl}-amine] | 2150 nM | > 9100 nM | 4000 nM | 8510 nM |
| COc1ccc(-c2ccc3nc(C)c(-c4ccnc(NCC5CC5)n4)n3n2)cc1OC [Example 87, Cyclopropylmethyl-{4-[6-(3,4-dimethoxy-phenyl)-2-methyl-imidazo[1,2-b]pyridazin-3-yl]-pyrimidin-2-yl}-amine] | 296 nM | > 9100 nM | 357 nM | 98 nM |
| COc1ccc(-c2ccc3nc(C)c(-c4ccnc(N(C)CCN(C)C)n4)n3n2)cc1OC [Example 88, N-{4-[6-(3,4-Dimethoxy-phenyl)-2-methyl-imidazo[1,2-b]pyridazin-3-yl]-pyrimidin-2-yl}-N,N′,N′-trimethyl-ethane-1,2-diamine] | 51 nM | 3030 nM | 41 nM | 98 nM |
| COc1cccc(NC(=O)NCCCOc2cc(-c3ccc4nc(C)c(-c5cnc(N)c(C(F)(F)F)c5)n4n3)ccc2OC)c1 [Example 89, 1-(3-{5-[3-(6-Amino-5-trifluoromethyl-pyridin-3-yl)-2-methyl-imidazo[1,2-b]pyridazin-6-yl]-2-methoxy-phenoxy}-propyl)-3-(3-methoxy-phenyl)-urea] | 1640 nM | > 9100 nM | > 9100 nM | 6860 nM |
| COCCOCCOCCOc1ccc(-c2ccc3nc(C)c(-c4ccc(S(C)(=O)=O)cc4)n3n2)cc1OC [Example 90, 3-(4-Methanesulfonyl-phenyl)-6-(3-methoxy-4-{2-[2-(2-methoxy-ethoxy)-ethoxy]-ethoxy}-phenyl)-2-methyl-imidazo[1,2-b]pyridazine] | 2360 nM | > 9100 nM | 1740 nM | 3460 nM |
| CCS(=O)(=O)c1ccc(-c2c(C)nc3ccc(-c4ccc(OCCOCCOCCOC)c(OC)c4)nn23)cc1 [Example 91, 3-(4-Ethanesulfonyl-phenyl)-6-(3-methoxy-4-{2-[2-(2-methoxy-ethoxy)-ethoxy]-ethoxy}-phenyl)-2-methyl-imidazo[1,2-b]pyridazine] | 4100 nM | > 9100 nM | 3400 nM | > 9100 nM |

Continued, values first:

| IC50 [1] | IC50 [2] | IC50 [3] | IC50 [4] | Compound |
| --- | --- | --- | --- | --- |
| 93 nM | > 9100 nM | 1590 nM | 2740 nM | COc1cc(-c2ccc3nc(C)c(-c4cnc(N)c(C(F)(F)F)c4)n3n2)ccc1OCCNC(=O)c1ccncc1 [Example 29] |
| 38 nM | > 9100 nM | 748 nM | 4320 nM | COc1cc(-c2ccc3nc(C)c(-c4cnc(N)c(C(F)(F)F)c4)n3n2)ccc1OCCNC(=O)c1cccnc1 [Example 31] |
| 233 nM | > 9100 nM | > 9100 nM | 2300 nM | COc1ccc(C(=O)NCCOc2ccc(-c3ccc4nc(C)c(-c5cnc(N)c(C(F)(F)F)c5)n4n3)cc2OC)cc1OC [Example 37] |
| 368 nM | > 9100 nM | > 9100 nM | > 9100 nM | COc1cccc(C(=O)NCCOc2ccc(-c3ccc4nc(C)c(-c5cnc(N)c(C(F)(F)F)c5)n4n3)cc2OC)c1 [Example 39] |
| 1810 nM | > 9100 nM | > 9100 nM | 4500 nM | COc1cc(-c2ccc3nc(C)c(-c4cnc(N)c(C(F)(F)F)c4)n3n2)ccc1OCCNC(=O)Nc1cccc(C#N)c1 [Example 47] |
| 28 nM | > 9100 nM | 1660 nM | 2520 nM | COc1cc(-c2ccc3nc(C)c(-c4cnc(N)c(C(F)(F)F)c4)n3n2)ccc1OCCNC(=O)Nc1cccnc1 [Example 51] |
| 371 nM | > 9100 nM | > 9100 nM | 2640 nM | COc1cccc(NC(=O)NCCOc2ccc(-c3ccc4nc(C)c(-c5cnc(N)c(C(F)(F)F)c5)n4n3)cc2OC)c1 [Example 59] |
| 30 nM | > 9100 nM | 372 nM | 503 nM | COc1cc(-c2ccc3nc(C)c(-c4cnc(N)c(C(F)(F)F)c4)n3n2)ccc1OCCNC(=O)C(C)C [Example 81] |
